The text below walks through data of ChEMBL document CHEMBL1201862, “PubChem BioAssay data set” (2004).

One may read the EC50 as the midpoint of the concentration-response curve. As a reminder, the AC50 is the concentration at which the activity in the assay is half-maximal.

Active and inactive are the calls of the source. Cut-off read from the data, not from the text of the source, for most assays here: actives have a measured EC50 and inactives only a lower limit.

The nature of assay [1]: fluconazole-exposed Candida albicans growth modulators – fluorescence, retest, confirmation (AID 2467). The assay is classed as functional, cell-based.
A short description of assay [2]: NIH-3T3 fibroblast cytotoxicity, dose response, cytotoxicity control, cell-based, fluorescence, Alamar Blue, secondary assay (AID 2327).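 Note: NIH-3T3 mouse fibroblasts cultured with fluconazole at 8 µg/mL.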 It is filed as functional. (In general: The colour change of resazurin is a common sign of viable cells or microbes.)
Assay [3] can be described thus: viability of uninfected HEp-2 cells – cell-based, HTS, cytotoxicity control for RSV inhibitor project, dose response (AID 2410). It is filed as functional. The following applies: human respiratory syncytial virus.
A short description of assay [4]: microbe, parasite or virus in culture. It is filed as functional. To be noted: Mycobacterium tuberculosis.
The nature of assay [5]: Luminescence Cell-Based Dose Retest to Confirm Inhibitors of Cancer Stem Cells. [Related pubchem assays (depositor defined):AID2717, AID2721]. The assay is classed as functional. The following applies: Homo sapiens.
The target of assay [6] is T1, Heat shock factor protein 1 (Mus musculus, UniProt P38532).
T1 sequence (P38532 whole entry): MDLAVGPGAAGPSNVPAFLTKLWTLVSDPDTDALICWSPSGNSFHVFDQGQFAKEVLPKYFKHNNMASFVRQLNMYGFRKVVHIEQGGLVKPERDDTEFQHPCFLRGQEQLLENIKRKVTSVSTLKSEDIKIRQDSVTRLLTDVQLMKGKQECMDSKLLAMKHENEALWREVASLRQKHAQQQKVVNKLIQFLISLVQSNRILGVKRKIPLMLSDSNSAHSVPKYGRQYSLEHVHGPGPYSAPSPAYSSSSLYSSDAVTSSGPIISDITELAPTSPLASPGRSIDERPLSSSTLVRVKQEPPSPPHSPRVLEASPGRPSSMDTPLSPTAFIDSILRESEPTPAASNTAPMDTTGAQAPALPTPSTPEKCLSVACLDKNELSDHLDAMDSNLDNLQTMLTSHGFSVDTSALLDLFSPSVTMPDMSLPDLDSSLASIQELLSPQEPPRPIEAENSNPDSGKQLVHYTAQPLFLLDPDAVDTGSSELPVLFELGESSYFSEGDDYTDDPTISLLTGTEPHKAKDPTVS
Put plainly: decrease of HSF1-responsive luciferase luminescence – cell-based, NIH3T3, dose retest, confirmation (AID 2382).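 Note: NIH3T3 fibroblasts with HSF1-driven luciferase reporter stressed by proteasome inhibitor MG132; luminescence from HSF1-driven luciferase expression after 8 hours of MG132 stress.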 The assay is classed as functional.

Assay [7] has as its system Streptococcus sp. 'group A'. Kind of assay: Streptococcus pyogenes SK(-)GAS viability under kanamycin – luminescence, BacTiterGlo, confirmation, counter-screen for streptokinase expression inhibitor project, dose response (AID 1900). The assay is classed as functional, organism-based. (In general: A counterscreen serves to expose hits that act by an unwanted route or on another target.)

In another assay the test system is Streptococcus. Put plainly: GAS UMAA2166 growth inhibition – luminescence, BacTiterGlo, counter-screen for streptokinase expression inhibitor project, dose response (AID 1915).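 Note: potency for reduction of bacterial viability or growth.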 The assay is classed as functional, organism-based.
The target of another assay is T2, Streptokinase A (Streptococcus pyogenes serotype M1, UniProt P10520).
T2 sequence (P10520 whole entry): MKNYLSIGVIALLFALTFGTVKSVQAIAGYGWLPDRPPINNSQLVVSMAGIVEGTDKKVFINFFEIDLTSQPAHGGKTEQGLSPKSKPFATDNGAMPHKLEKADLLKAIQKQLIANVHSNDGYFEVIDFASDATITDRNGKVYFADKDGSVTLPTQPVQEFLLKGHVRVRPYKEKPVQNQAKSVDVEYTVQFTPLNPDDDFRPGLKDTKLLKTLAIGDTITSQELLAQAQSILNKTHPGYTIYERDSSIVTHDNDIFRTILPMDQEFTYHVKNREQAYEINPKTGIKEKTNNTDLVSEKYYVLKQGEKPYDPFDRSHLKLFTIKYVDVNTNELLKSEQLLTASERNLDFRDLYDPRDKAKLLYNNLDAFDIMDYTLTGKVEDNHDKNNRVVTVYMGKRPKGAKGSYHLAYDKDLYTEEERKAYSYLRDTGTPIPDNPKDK
Put plainly: viability-normalized secreted streptokinase activity reduction – plasminogen activation absorbance, OD405, dose response (AID 1914).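 Note: secreted streptokinase activity via plasminogen activation per viability signal from cell pellet.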 It is filed as functional, Streptococcus pyogenes M1 GAS.
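Throughout, for AC50: cells exposed to compound for roughly 70 hours or longer before luminescence read.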

For `Cc1nc(NC(=O)c2c(-c3ccccc3)noc2C)sc1C(=O)N(C)C`, the EC50 was > 38 µM (not active) in [1] and > 160 µM (inactive) in [2].

For the compound `Cc1nn(C)c(C(=O)Nc2cccc(Nc3ccccc3)c2)c1[N+](=O)[O-]`, the CC50 in assay [3] was 23.1 µM (active).

For the compound `CCCCCCCNC(=O)c1ccc(N2CCC3(CC2)OCCO3)c([N+](=O)[O-])c1`, the CC50 in assay [4] was > 40 µM (active).

In the case of `O=C(/C=C/c1ccc2c(c1)OCCCO2)c1ccc2ccccc2c1O`, the AC50 in assay [5] was 5.21 µM (active). Besides, the CC50 in assay [3] is 30.7 µM (active).

As to `COc1ccc(CCNC(=O)c2ccc(N(C)S(=O)(=O)c3ccc(C)cc3)cc2)cc1`, in assay [6], the EC50 is reported as > 195 µM (not active).

Consider `O=C(CSc1nccn1Cc1ccco1)Nc1cccc(F)c1`, for which, in [6], the concentration giving a half-maximal response (EC50) is > 195 µM (not active).

Regarding `CCN(CC)C(=O)[C@H]1CC(CC(=O)NCC23C[C@H]4C[C@@H](C2)C[C@@H](C3)C4)C(=O)N2CCc3c([nH]c4ccccc34)[C@]12C` (stereo partly drawn), the CC50 in assay [4] was 30.8 µM (active).

As for `O=C1c2ccccc2C(=O)N1CCCCN(C(=O)c1ccc(Cl)s1)c1ccc(Cl)cc1`, the CC50 in assay [3] is 24 µM (active).

Take `O=C(O)c1ccc(-c2nc(-c3ccc(Cl)cc3)cs2)cc1`: the EC50 in assay [1] was 4.58 µM (active); in assay [2] it was 112 µM (active).

Regarding `C=CCNC(=O)c1onc(CCl)c1C(=O)OC`, in [4], the CC50 was > 40 µM (active).

On to `CC1=NN(C(N)=S)C(=O)C1N=Nc1ccc(C)c(Br)c1` (stereo not drawn), for which, in assay [4], the CC50 is > 40 µM (active).

Take `O=C(NCC1CCCN(C2Cc3ccccc3C2)C1)c1cccs1` (stereo not drawn): the EC50 in [6] is given as > 195 µM (not active).

Regarding `O=C(Nc1cccc(F)c1)c1cc(-c2ccco2)nc2ccccc12`, in assay [6], the 50% effective concentration (EC50) was > 195 µM (not active).

As to `CCn1cc(C(=O)OCC(=O)Nc2cccc(Cl)c2Cl)c(=O)c2ccc(C)nc21`, the EC50 in assay [1] was > 38 µM (not active); in [2] it was > 150 µM (inactive).

On to `CCOC(=O)c1ccc(NC(=S)Nc2ccccc2N)cc1`, for which the EC50 in assay [6] was > 195 µM (not active).

`COc1ccc(C2=CC(c3c(C)nn(-c4ccccc4)c3Cl)n3nnnc3N2)cc1OC` (stereo not drawn): the CC50 in [4] is > 40 µM (active); in assay [3], 24.1 µM (active).

On to `Nc1cc(N)nc(SCc2cccc(F)c2)n1`, for which the EC50 is > 38 µM (not active) in [1] and > 150 µM (inactive) in assay [2].

Regarding `COc1cc2c(cc1OC)C(C(=O)NC1CC1)C1c3ccccc3CCN1C2=O` (stereo not drawn), the 50% effective concentration (EC50) in assay [6] was > 195 µM (not active).

For the compound `Cc1nn2c(-c3cccnc3)ccnc2c1-c1ccccc1`, the CC50 in assay [3] was 41.2 µM (active).

With `CCCc1nc(NCCO)c(C#N)c2c1CCCC2`, in assay [3], the CC50 is 15.7 µM (active).

Turning to `CCc1ccccc1-n1c(SCC(=O)Nc2ccc3c(c2)OCCO3)nc2nncc-2c1O`, in assay [6], the EC50 was 3.04 µM (active).

`CCCOc1cccc(-c2nn(-c3ccccc3)cc2/C=C(\C#N)C(=O)NCCCn2ccnc2)c1`: the CC50 in assay [4] is > 40 µM (active).

Consider `CCOC(=O)C1=C(CN2CCN(C(=O)c3ccco3)CC2)NC(=O)NC1c1ccc(OC)cc1` (stereo not drawn), for which the concentration for a half-maximal effect (EC50) in assay [6] was > 195 µM (not active).

With `CCOc1ccccc1C(=O)N/N=C/c1ccoc1`, the concentration giving a half-maximal response (EC50) in assay [1] is 3.33 µM (active); in [2], 138 µM (active).

`CCOC1OC(O)=C(Cl)/C1=N\c1cc(C)ccc1C` (stereo not drawn): in [3], the CC50 was 29.2 µM (active).

`Sc1nnc(C2CCCCC2)n1/N=C/C(Cl)=C\c1ccccc1`: the AC50 in assay [5] was 5.5 µM (active). Further, in assay [3], the CC50 was 15.2 µM (active).

For `CCCc1cc(=O)n2nc(C)c(-c3ccc(Cl)cc3)c2[nH]1`, the EC50 in assay [7] was 3.37 µM (active); with Streptococcus, 11.3 µM (active); at Streptokinase A it was > 150 µM (not active). The CC50 in [4] was 39.5 µM (active).
